Measured values reported in patent US12011517B2, “Air freshening product” (The Procter & Gamble Company, priority 2019, dated 2024).

With `CCCCCCC/C=C/C=O` [(E)-2-Decen-1-al] the “Average Vapor Pressure (Torr) at 25 degrees Celsius” value was 0.0674 Torr.

With `CCC/C=C/C=O` [(E)-2-Hexen-1-al] the “Average Vapor Pressure (Torr) at 25 degrees Celsius” value was 10.7 Torr.
